From ChEMBL document CHEMBL1765025, “4-Aminothiazolyl analogues of GE2270 A: antibacterial lead finding” (2011)
≈ marks a conversion by molar mass, not a printed value.

Assays:
Format in all cases: functional
Staphylococcus = assay: Antibacterial activity against methicillin-resistant Staphylococcus
Staphylococcus aureus = assay: Antibacterial activity against methicillin-resistant Staphylococcus aureus by CLSI M100-S19 method
Enterococcus = assay: Antibacterial activity against vancomycin-resistant Enterococcus
Enterococcus faecium = assay: Antibacterial activity against Enterococcus faecium by CLSI M100-S19 method
Enterococcus faecalis = assay: Antibacterial activity against Enterococcus faecalis ATCC 29212 by CLSI M100-S19 method
Streptococcus pyogenes = assay: Antibacterial activity against Streptococcus pyogenes ATCC BAA-595 by CLSI M100-S19 method

Row | Structure (SMILES) | MIC (Staphylococcus) [µg/mL] | MIC (Staphylococcus aureus) [µg/mL] | MIC (Enterococcus) [µg/mL] | MIC (Enterococcus faecium) [µg/mL] | MIC (Enterococcus faecalis) [µg/mL] | MIC (Streptococcus pyogenes) [µg/mL]
1 | CNC(=O)C[C@@H]1NC(=O)c2csc(n2)-c2ccc(-c3nc(C4=N[C@H](C(=O)N5CCC[C@H]5C(N)=O)CO4)cs3)nc2-c2csc(n2)-c2csc(n2)[C@H]([C@@H](O)c2ccccc2)NC(=O)CNC(=O)c2nc(sc2COC)[C@H](C(C)C)NC(=O)c2nc1sc2C | 1 (≈ 0.775 µM) | 0.25 (≈ 0.194 µM) | 1 (≈ 0.775 µM) | 0.25 (≈ 0.194 µM) | 0.5 (≈ 0.387 µM) | 1 (≈ 0.775 µM)
2 | CNC(=O)C[C@@H]1NC(=O)c2csc(n2)-c2ccc(C(N)=O)nc2-c2csc(n2)-c2csc(n2)[C@H]([C@@H](O)c2ccccc2)NC(=O)CNC(=O)c2nc(sc2COC)[C@H](C(C)C)NC(=O)c2nc1sc2C |  | > 32 |  | > 32 | 32 (≈ 30.7 µM) | > 32
3 | CNC(=O)C[C@@H]1NC(=O)c2csc(n2)-c2ccc(-c3nc(NC(=O)OC(C)(C)C)cs3)nc2-c2csc(n2)-c2csc(n2)[C@H]([C@@H](O)c2ccccc2)NC(=O)CNC(=O)c2nc(sc2COC)[C@H](C(C)C)NC(=O)c2nc1sc2C |  | > 32 |  | > 32 | > 32 | > 32
4 | CNC(=O)C[C@@H]1NC(=O)c2csc(n2)-c2ccc(-c3nc(NS(C)(=O)=O)cs3)nc2-c2csc(n2)-c2csc(n2)[C@H]([C@@H](O)c2ccccc2)NC(=O)CNC(=O)c2nc(sc2COC)[C@H](C(C)C)NC(=O)c2nc1sc2C |  | 2 (≈ 1.7 µM) |  | 4 (≈ 3.41 µM) | 2 (≈ 1.7 µM) | > 32
5 | CNC(=O)C[C@@H]1NC(=O)c2csc(n2)-c2ccc(-c3nc(NC(C)=O)cs3)nc2-c2csc(n2)-c2csc(n2)[C@H]([C@@H](O)c2ccccc2)NC(=O)CNC(=O)c2nc(sc2COC)[C@H](C(C)C)NC(=O)c2nc1sc2C |  | 2 (≈ 1.76 µM) |  | 1 (≈ 0.878 µM) | 1 (≈ 0.878 µM) | > 32
